Tested on: patients with chronic constipation
Assay: Clinical trial, secondary efficacy RESP12: increase of 1 or more CSBM/week over baseline after 12 weeks of treatment, by subgroup and genotype
Assay type: in vivo, human
Details: for Odds Ratio: 6-mg bid vs placebo; for % Responders T6 / Odds Ratio (T6 v P) / % Responders: 6-mg bid
Experimental: Introduction. A clinical trial was performed to evaluate the efficacy of tegaserod (Zelmac®/Zelnorm™) at 6 mg bid (12 mg/day) or 2 mg bid (4 mg/day) vs. placebo by measuring the number of complete spontaneous bowel movements (CSBM) during the first 4 weeks of treatment. Secondary objectives included evaluating the number of CSBM during the entire 12-week treatment period, bowel habits, laxative use, and safety and tolerability issues. The clinical trial design consisted of a 2-week baseline period without medication, a 12-week, randomized, double-blind, placebo-controlled treatment period, and a 4-week withdrawal period without study medication. As part of the clinical trial, DNA was collected from patients at screening for pharmacogenetic analysis to evaluate genetic polymorphisms relating to drug targets and disease aetiology.
Clinical assessments. […] The primary efficacy endpoint evaluated was the increase of 1 or more CSBM/week over baseline after 4 weeks of treatment. A secondary endpoint evaluated in this genotyping study was RESP12, the increase of 1 of more CSBM/week over baseline after 12 weeks of treatment. Patients were classified as responders if they met these criteria and had completed at least 7 days of treatment. Additional secondary efficacy assessments were evaluated based on the weekly diary assessments, such as bothersome constipation, bothersome abdominal pain, and satisfaction with bowel habits at the end of the 12-week treatment period (using the baseline value as a co-variant for analysis).
Statistical analysis. Statistical analysis was performed using SAS version 8.2 (The SAS Institute, Cary, N.C., USA). Analysis methods included Fisher's Exact tests, analysis of Covariance (ANCOVA), logistic regression, and Mantel-Haenzel tests to determine odds ratios and 95% confidence intervals, with significance established at p<0.05. Calculation of linkage disequilibrium was performed using the GOLD (graphical overview of linkage disequilibrium) method described by Abecasis & Cookson, Bioinformatics 16: 182-3 (2000).
Secondary efficacy endpoint: response after 12 weeks of treatment. The same comparison as above was performed using the secondary efficacy endpoint of a mean increase of 1 or more CSBM/week over baseline after 12 weeks of treatment. The results for the 12 individual “high responder” SNPs are presented in TABLE 9 and the results using the comparison of individuals with or without at least one of the twelve SNPs is presented in TABLE 10.

[1] = All Caucasians (ITT, >=7 days), Age <65, M + F
[2] = All Caucasians (ITT, >=7 days), Age >=65, M + F
[3] = All Caucasians (ITT, >=7 days), Age All, Female
[4] = All Caucasians (ITT, >=7 days), Age All, M + F
[5] = All Caucasians (ITT, >=7 days), Age All, Male
[6] = All genotyped (ITT, >=7 days), Age <65, M + F
[7] = All genotyped (ITT, >=7 days), Age >=65, M + F
[8] = All genotyped (ITT, >=7 days), Age All, Female
[9] = All genotyped (ITT, >=7 days), Age All, M + F
[10] = All genotyped (ITT, >=7 days), Age All, Male
[11] = All patients (ITT, >=7 days), Age <65, M + F
[12] = All patients (ITT, >=7 days), Age >=65, M + F
[13] = All patients (ITT, >=7 days), Age All, Female
[14] = All patients (ITT, >=7 days), Age All, M + F
[15] = All patients (ITT, >=7 days), Age All, Male
[16] = Caucasians genotyped (ITT, >=7 days), Age <65, M + F
[17] = Caucasians genotyped (ITT, >=7 days), Age >=65, M + F
[18] = Caucasians genotyped (ITT, >=7 days), Age All, Female
[19] = Caucasians genotyped (ITT, >=7 days), Age All, M + F
[20] = Caucasians genotyped (ITT, >=7 days), Age All, Male
[21] = Female (All ages), 0-12 of the 12 SNPs
[22] = Female (All ages), 0 of the 12 SNPs
[23] = Female (All ages), 1-12 of the 12 SNPs

[H]/N=C(/NCCCCC)N/N=C/c1c[nH]c2ccc(OC)cc12 [tegaserod, Tegaserod]
Odds Ratio [1]: 2.8 | Odds Ratio [2]: 1.4 | Odds Ratio [3]: 2.5 | Odds Ratio [4]: 2.5 | Odds Ratio [5]: 2.5 | Odds Ratio [6]: 2.6 | Odds Ratio [7]: 2.6 | Odds Ratio [8]: 2.5 | Odds Ratio [9]: 2.6 | Odds Ratio [10]: 2.9 | Odds Ratio [11]: 2.3 | Odds Ratio [12]: 1.6 | Odds Ratio [13]: 2.2 | Odds Ratio [14]: 2.3 | Odds Ratio [15]: 2.6 | Odds Ratio [16]: 3.0 | Odds Ratio [17]: 2.3 | Odds Ratio [18]: 2.8 | Odds Ratio [19]: 2.8 | Odds Ratio [20]: 3.0 | % Responders T6 (0 of 14 SNPs): 39% | Odds Ratio (T6 v P) (0 of 14 SNPs): 1.2 | % Responders T6 (>=1 of 14 SNPs): 54% | Odds Ratio (T6 v P) (>=1 of 14 SNPs): 4.4 | % Responders T6 (AQP3 (1838) genotype CC): 47% | Odds Ratio (T6 v P) (AQP3 (1838) genotype CC): 2.7 | % Responders T6 (AQP3 (1838) genotype CG): 49% | Odds Ratio (T6 v P) (AQP3 (1838) genotype CG): 2.5 | % Responders T6 (AQP3 (1838) genotype GG): 64% | Odds Ratio (T6 v P) (AQP3 (1838) genotype GG): 8.1 | % Responders [1]: 48% | % Responders [2]: 38% | % Responders [3]: 47% | % Responders [4]: 47% | % Responders [5]: 45% | % Responders [6]: 47% | % Responders [7]: 56% | % Responders [8]: 47% | % Responders [9]: 47% | % Responders [10]: 52% | % Responders [11]: 46% | % Responders [12]: 40% | % Responders [13]: 46% | % Responders [14]: 46% | % Responders [15]: 43% | % Responders [16]: 49% | % Responders [17]: 53% | % Responders [18]: 48% | % Responders [19]: 49% | % Responders [20]: 57% | % Responders T6 [21]: 48% | Odds Ratio (T6 v P) [21]: 2.8 | % Responders T6 [22]: 36% | Odds Ratio (T6 v P) [22]: 1.4 | % Responders T6 [23]: 61% | Odds Ratio (T6 v P) [23]: 5.5 | % Responders T6 (HTR3B (3755) genotype AA): 49% | Odds Ratio (T6 v P) (HTR3B (3755) genotype AA): 3.0 | % Responders T6 (HTR3B (3755) genotype AC): 47% | Odds Ratio (T6 v P) (HTR3B (3755) genotype AC): 2.3 | % Responders T6 (HTR3B (3755) genotype CC): 67% | Odds Ratio (T6 v P) (HTR3B (3755) genotype CC): 5.1 | % Responders T6 (HTR4 (1746) genotype CC): 44% | Odds Ratio (T6 v P) (HTR4 (1746) genotype CC): 3.1 | % Responders T6 (HTR4 (1746) genotype CT): 49% | Odds Ratio (T6 v P) (HTR4 (1746) genotype CT): 2.6 | % Responders T6 (HTR4 (1746) genotype TT): 70% | Odds Ratio (T6 v P) (HTR4 (1746) genotype TT): 3.2 | % Responders T6 (HTR4 (3743) genotype AA): 48% | Odds Ratio (T6 v P) (HTR4 (3743) genotype AA): 3.7 | % Responders T6 (HTR4 (3743) genotype AC): 52% | Odds Ratio (T6 v P) (HTR4 (3743) genotype AC): 4.7 | % Responders T6 (HTR4 (3743) genotype CC): 78% | Odds Ratio (T6 v P) (HTR4 (3743) genotype CC): 8.2 | % Responders T6 (HTR4 (3747) genotype AA): 41% | Odds Ratio (T6 v P) (HTR4 (3747) genotype AA): 2.7 | % Responders T6 (HTR4 (3747) genotype AT): 54% | Odds Ratio (T6 v P) (HTR4 (3747) genotype AT): 3.1 | % Responders T6 (HTR4 (3747) genotype TT): 65% | Odds Ratio (T6 v P) (HTR4 (3747) genotype TT): 3.0 | % Responders T6 (HTR4 (3753) genotype CC): 45%

From patent publication US20090118350A1, “Biomarkers for Identifying Efficacy of Tegaserod in Patients with Chronic Constipation” (priority 2005, published 2009)
